# Source: ChEMBL document CHEMBL5352506, “The Zinc-Binding Group Effect: Lessons from Non-Hydroxamic Acid Vorinostat Analogs” (J Med Chem, 2023)
# Legend:
# Histone deacetylase [1] = format: cell-based, Homo sapiens; details: hela
# [2] = target: T1, Protein deacetylase HDAC6 (Homo sapiens, UniProt Q9UBN7); assay: Inhibition of human recombinant HDAC6
# T1 sequence (Q9UBN7 whole entry): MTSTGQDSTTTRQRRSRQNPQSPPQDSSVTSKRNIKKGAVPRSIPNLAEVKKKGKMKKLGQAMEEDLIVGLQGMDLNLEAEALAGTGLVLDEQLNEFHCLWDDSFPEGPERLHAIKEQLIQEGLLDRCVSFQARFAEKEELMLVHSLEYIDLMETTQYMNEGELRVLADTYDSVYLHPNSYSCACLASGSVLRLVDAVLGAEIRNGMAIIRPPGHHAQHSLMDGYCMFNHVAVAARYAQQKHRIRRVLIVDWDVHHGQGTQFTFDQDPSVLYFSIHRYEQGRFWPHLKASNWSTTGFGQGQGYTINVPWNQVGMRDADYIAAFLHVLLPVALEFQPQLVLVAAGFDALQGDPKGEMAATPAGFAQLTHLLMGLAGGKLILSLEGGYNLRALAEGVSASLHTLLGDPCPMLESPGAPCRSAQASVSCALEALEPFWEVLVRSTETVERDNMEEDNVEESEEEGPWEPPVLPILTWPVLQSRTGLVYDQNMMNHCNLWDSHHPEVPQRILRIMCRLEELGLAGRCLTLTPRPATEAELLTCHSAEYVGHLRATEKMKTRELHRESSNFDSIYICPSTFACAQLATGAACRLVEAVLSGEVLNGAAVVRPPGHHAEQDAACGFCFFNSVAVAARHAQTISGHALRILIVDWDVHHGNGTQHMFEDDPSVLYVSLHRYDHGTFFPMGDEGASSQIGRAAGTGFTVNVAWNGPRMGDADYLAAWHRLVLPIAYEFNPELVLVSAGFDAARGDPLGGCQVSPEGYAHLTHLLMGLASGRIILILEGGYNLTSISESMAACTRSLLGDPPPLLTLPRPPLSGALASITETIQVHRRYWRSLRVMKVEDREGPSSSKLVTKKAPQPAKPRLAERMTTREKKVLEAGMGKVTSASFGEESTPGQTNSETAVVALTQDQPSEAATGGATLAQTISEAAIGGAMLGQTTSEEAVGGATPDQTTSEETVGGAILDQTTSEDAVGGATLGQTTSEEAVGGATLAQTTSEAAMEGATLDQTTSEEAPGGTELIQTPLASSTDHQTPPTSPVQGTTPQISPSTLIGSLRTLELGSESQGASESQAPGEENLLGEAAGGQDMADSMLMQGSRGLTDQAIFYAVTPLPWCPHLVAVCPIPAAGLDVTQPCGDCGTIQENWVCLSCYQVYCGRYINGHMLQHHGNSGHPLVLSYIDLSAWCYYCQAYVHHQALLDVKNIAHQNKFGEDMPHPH
# HBL-100 = assay: Cytotoxicity against human HBL-100 cells assessed as cell growth inhibition; format: toxicity, cell-based
# [3] = Antiproliferative activity against human HC-04 cells assessed as cell growth inhibition measured after 72 hrs by MTT assay; format: functional, cell-based; details: HC04, 72 h
# HRT-18 cell line = assay: Antiproliferative activity against human HRT-18 cell line assessed as cell growth inhibition measured after 72 hrs by MTT assay; format: functional, cell-based; details: HRT-18, 72 h
# Histone deacetylase 1 [4] = target: T2, Histone deacetylase 1 (Homo sapiens, UniProt Q13547); assay: Inhibition of HDAC1 (unknown origin); details: pooled result: one value given for 7 cell lines, strains, targets or settings
# Histone deacetylase 11 = target: T3, Histone deacetylase 11 (Homo sapiens, UniProt Q96DB2); assay: Inhibition of human recombinant HDAC11
# T3 sequence (Q96DB2 whole entry): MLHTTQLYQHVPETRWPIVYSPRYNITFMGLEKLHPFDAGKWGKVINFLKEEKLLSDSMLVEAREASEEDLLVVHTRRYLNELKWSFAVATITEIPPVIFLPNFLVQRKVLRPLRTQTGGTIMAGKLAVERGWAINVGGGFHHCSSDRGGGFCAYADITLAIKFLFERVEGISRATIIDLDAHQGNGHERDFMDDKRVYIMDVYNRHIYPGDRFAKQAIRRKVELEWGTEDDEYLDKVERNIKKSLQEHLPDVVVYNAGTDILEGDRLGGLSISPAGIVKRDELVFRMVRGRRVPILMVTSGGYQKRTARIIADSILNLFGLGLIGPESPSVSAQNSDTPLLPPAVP
# Histone deacetylase 9 = Histone deacetylase 9 (Homo sapiens, UniProt Q9UKV0); assay: Inhibition of human recombinant HDAC9
# Histone deacetylase 5 = Histone deacetylase 5 (Homo sapiens, UniProt Q9UQL6); assay: Inhibition of human recombinant HDAC5
# Histone deacetylase 8 = target: T4, Histone deacetylase 8 (Homo sapiens, UniProt Q9BY41); assay: Inhibition of human recombinant HDAC8
# T4 sequence (Q9BY41 whole entry): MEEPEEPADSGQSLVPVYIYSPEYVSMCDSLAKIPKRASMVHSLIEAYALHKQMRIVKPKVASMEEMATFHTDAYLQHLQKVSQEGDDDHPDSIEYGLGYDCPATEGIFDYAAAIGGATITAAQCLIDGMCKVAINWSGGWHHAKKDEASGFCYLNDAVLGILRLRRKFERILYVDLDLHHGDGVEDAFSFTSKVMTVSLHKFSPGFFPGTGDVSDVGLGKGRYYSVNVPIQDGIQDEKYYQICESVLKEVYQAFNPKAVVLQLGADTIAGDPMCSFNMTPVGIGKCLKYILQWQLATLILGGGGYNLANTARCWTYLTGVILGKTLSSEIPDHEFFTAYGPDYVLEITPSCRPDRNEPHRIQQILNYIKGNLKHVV
# [5] = target: T5, Polyamine deacetylase HDAC10 (Homo sapiens, UniProt Q969S8); assay: Inhibition of human recombinant HDAC10
# T5 sequence (Q969S8 whole entry): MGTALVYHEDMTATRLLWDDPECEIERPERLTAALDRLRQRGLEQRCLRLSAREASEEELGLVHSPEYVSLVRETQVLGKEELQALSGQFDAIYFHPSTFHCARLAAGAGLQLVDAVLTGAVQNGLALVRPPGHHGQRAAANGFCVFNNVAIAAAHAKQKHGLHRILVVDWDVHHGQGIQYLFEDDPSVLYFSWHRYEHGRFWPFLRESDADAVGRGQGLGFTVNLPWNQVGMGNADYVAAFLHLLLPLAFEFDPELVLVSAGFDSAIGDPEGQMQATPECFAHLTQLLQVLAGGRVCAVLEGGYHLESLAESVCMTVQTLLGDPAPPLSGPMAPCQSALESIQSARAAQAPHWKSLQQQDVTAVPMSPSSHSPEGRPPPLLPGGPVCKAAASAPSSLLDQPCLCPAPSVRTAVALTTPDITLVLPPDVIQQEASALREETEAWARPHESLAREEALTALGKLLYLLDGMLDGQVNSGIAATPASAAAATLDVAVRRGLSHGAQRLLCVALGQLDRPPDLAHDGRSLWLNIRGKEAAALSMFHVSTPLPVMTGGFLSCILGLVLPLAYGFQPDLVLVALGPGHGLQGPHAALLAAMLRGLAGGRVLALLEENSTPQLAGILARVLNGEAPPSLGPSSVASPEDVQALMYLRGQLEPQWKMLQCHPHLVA
# Histone deacetylase 4 = Histone deacetylase 4 (Homo sapiens, UniProt P56524); assay: Inhibition of human recombinant HDAC4
# [6] = target: Histone deacetylase (HDAC1 and HDAC2) (Homo sapiens, UniProt Q13547+Q92769); assay: Inhibition of HDAC1/2 in human K562 nuclear extraction; format: cell-free
# Histone deacetylase [7] = assay: Inhibition of HDAC (unknown origin); format: protein assay, Homo sapiens
# Toxoplasma gondii = assay: Antiparasitic activity against Toxoplasma gondii assessed as parasitic growth inhibition; format: functional, organism-based
# Histone deacetylase 2 = Histone deacetylase 2 (Homo sapiens, UniProt Q92769)
# Histone deacetylase 1 [8] = target: T2, Histone deacetylase 1; assay: Inhibition of human recombinant HDAC1
# [9] = Dissociation constant, pKa of the compound; format: physicochemical
# Histone deacetylase 7 = target: T6, Histone deacetylase 7 (Homo sapiens, UniProt Q8WUI4); assay: Inhibition of human recombinant HDAC7
# T6 sequence (Q8WUI4 whole entry): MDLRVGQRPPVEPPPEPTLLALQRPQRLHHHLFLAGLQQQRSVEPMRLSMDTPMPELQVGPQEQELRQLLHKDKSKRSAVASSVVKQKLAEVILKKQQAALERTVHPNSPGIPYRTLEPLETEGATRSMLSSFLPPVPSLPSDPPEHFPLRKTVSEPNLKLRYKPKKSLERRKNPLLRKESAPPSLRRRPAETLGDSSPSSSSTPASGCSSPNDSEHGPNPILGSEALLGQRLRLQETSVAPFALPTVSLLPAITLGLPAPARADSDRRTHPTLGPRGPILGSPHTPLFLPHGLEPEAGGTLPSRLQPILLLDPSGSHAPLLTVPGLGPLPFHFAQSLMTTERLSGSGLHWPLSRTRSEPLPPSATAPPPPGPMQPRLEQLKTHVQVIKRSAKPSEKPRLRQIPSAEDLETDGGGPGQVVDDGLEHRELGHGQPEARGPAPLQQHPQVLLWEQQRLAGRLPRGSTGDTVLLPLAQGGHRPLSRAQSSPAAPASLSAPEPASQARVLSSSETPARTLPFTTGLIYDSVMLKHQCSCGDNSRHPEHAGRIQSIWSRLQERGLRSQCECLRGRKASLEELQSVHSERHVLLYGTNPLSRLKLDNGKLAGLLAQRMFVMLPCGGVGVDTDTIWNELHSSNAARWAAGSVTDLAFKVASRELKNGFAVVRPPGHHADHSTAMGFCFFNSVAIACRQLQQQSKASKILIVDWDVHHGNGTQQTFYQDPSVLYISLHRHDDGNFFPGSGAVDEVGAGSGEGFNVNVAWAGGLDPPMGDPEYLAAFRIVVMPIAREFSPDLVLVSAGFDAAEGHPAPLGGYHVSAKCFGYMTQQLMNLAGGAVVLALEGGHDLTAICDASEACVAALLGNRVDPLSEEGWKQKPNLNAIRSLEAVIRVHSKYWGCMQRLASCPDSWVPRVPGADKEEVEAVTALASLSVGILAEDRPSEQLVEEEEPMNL
# Histone deacetylase 3 = Histone deacetylase 3 (Homo sapiens, UniProt O15379); assay: Inhibition of human recombinant HDAC3
# Histone deacetylase 3, sequence (O15379 whole entry): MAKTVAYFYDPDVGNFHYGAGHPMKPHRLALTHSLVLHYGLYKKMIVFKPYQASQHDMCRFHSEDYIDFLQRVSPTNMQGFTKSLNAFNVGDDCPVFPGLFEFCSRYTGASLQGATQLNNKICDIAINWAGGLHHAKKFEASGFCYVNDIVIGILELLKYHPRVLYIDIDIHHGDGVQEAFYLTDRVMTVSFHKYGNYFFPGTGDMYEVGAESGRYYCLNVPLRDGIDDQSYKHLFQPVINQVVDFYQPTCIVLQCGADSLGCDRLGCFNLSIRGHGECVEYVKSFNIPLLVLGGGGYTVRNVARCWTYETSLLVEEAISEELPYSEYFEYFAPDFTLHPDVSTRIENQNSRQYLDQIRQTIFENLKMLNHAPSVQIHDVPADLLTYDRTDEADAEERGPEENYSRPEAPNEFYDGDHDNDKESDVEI
# T2 sequence (Q13547 whole entry): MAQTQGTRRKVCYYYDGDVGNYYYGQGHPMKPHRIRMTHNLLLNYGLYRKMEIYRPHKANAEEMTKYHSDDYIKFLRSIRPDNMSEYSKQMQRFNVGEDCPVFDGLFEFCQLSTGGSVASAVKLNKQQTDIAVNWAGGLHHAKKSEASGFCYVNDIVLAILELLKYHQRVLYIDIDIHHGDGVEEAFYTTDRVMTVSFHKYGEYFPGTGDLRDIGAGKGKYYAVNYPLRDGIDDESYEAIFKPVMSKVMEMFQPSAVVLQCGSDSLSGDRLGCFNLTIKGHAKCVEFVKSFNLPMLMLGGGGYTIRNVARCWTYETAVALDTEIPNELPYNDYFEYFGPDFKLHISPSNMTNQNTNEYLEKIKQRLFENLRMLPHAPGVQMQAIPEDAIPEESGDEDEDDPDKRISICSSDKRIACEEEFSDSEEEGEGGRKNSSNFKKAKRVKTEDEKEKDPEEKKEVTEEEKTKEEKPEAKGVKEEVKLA
# Histone deacetylase 2, sequence (Q92769 whole entry): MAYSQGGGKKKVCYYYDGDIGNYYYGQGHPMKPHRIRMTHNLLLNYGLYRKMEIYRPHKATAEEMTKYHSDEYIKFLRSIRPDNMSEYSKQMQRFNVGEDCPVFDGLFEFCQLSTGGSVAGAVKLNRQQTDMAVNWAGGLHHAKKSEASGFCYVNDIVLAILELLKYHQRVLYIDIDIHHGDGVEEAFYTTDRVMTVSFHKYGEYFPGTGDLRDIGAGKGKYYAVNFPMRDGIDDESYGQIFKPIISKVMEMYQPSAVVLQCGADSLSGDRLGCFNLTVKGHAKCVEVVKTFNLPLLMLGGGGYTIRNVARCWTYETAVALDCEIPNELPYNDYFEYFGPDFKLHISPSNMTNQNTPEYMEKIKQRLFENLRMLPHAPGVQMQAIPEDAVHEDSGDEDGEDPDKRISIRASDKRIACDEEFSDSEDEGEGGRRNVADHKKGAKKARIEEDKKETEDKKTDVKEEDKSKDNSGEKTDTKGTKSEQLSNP
# Histone deacetylase 4, sequence (P56524 whole entry): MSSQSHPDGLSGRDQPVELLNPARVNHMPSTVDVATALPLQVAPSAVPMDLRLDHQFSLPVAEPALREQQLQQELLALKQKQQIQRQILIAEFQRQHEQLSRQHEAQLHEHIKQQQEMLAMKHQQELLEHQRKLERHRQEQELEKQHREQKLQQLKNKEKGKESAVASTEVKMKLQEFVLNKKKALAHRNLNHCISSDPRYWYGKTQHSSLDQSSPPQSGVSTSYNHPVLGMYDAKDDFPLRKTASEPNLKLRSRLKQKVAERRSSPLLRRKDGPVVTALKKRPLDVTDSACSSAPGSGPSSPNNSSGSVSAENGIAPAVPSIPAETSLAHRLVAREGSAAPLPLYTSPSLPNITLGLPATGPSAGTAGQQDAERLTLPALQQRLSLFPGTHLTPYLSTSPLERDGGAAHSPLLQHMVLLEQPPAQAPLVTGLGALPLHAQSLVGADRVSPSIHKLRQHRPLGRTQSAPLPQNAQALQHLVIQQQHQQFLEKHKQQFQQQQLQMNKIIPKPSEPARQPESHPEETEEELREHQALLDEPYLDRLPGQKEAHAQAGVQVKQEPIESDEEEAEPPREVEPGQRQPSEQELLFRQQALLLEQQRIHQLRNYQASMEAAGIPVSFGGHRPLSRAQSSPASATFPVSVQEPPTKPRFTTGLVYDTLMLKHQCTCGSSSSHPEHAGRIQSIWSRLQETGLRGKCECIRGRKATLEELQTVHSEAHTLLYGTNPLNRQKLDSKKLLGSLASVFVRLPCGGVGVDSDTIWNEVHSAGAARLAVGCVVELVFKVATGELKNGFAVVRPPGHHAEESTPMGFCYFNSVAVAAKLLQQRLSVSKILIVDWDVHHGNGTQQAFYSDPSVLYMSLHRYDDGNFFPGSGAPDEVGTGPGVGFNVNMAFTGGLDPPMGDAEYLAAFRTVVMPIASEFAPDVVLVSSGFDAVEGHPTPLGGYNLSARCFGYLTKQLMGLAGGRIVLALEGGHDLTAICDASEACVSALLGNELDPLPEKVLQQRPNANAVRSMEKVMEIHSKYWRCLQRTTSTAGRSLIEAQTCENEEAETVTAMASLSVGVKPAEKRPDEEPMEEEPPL
# Histone deacetylase 5, sequence (Q9UQL6 whole entry): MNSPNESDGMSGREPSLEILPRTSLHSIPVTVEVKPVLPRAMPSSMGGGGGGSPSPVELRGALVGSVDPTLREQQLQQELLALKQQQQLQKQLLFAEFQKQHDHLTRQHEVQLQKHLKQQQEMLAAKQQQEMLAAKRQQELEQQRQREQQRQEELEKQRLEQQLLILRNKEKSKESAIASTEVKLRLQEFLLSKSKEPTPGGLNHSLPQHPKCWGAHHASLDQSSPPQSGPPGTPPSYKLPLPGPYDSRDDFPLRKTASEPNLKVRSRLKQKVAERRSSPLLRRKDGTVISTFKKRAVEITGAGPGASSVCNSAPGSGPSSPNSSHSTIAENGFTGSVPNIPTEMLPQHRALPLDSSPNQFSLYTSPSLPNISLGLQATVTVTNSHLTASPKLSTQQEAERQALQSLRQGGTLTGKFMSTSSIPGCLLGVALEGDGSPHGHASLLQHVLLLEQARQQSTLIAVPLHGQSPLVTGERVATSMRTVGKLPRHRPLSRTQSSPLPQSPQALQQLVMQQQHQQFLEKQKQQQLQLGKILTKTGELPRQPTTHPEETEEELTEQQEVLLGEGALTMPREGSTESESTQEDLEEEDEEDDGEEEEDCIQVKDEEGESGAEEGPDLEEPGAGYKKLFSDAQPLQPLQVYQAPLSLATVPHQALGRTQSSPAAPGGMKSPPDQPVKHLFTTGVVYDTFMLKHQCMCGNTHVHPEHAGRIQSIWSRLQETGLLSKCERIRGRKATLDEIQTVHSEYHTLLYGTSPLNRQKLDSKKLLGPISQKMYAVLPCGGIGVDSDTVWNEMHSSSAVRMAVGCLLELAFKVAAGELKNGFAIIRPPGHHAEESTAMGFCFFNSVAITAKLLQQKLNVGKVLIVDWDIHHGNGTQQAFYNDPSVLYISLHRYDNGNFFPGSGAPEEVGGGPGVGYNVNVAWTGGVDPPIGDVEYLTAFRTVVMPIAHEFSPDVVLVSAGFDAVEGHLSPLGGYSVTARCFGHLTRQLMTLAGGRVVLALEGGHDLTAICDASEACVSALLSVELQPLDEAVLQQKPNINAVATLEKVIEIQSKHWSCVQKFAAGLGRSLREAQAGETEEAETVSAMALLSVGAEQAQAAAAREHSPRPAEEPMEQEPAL
# Histone deacetylase 9, sequence (Q9UKV0 whole entry): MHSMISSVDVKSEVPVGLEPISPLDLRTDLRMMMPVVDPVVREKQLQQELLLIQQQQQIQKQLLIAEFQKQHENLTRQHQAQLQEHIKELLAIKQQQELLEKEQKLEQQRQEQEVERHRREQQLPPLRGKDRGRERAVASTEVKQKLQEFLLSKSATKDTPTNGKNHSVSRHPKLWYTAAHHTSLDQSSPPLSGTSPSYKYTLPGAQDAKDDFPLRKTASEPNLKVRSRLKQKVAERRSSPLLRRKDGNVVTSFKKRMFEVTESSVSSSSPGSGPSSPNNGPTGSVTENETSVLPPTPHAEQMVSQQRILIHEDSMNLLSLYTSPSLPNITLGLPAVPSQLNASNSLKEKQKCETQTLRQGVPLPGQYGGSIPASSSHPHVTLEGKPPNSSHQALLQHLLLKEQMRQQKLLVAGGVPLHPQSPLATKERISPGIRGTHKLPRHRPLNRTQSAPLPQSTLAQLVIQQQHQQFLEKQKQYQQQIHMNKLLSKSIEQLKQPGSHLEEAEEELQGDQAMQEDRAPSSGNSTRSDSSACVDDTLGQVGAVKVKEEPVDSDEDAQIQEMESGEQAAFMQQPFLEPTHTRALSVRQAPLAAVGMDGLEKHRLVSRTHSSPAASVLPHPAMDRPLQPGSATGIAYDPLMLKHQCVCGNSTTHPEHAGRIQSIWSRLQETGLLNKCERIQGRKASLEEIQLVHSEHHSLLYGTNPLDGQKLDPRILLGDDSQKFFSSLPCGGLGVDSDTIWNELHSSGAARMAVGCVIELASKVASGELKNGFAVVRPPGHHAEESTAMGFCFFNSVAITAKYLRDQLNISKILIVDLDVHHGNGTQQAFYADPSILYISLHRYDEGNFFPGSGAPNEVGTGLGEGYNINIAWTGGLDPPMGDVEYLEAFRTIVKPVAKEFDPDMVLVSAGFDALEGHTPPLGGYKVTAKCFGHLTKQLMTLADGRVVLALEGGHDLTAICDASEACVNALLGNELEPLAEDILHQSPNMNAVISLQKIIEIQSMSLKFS
smiles,measurement,setting,value
C[C@H](O)C(=O)CCCCCCC(=O)Nc1ccccc1,IC50,Histone deacetylase [1],77.1 µM
same,IC50,[2],> 300 µM
NC(=S)NC(=O)CCCCCC(=O)Nc1ccccc1,inhibition (INH),HBL-100,< 12%
same,IC50,[3],24.1 µM
same,IC50,HRT-18 cell line,24.1 µM
CC(=O)O[C@H](C)C(=O)CCCCCCC(=O)Nc1ccccc1,IC50,Histone deacetylase [1],63.8 µM
same,IC50,[2],> 300 µM
CNC(=O)/C(CCCCCCC(=O)Nc1ccccc1)=N\O,IC50,Histone deacetylase 1 [4],22 µM
O=C(CCCCCCC(=O)C(F)(F)F)Nc1ccccc1,IC50,Histone deacetylase 11,100 µM
same,IC50,Histone deacetylase 9,5.9 µM
same,IC50,Histone deacetylase 5,0.04 µM
same,IC50,Histone deacetylase 8,1.7 µM
same,IC50,[2],2.2 µM
same,IC50,[5],19 µM
same,IC50,Histone deacetylase 4,0.04 µM
O=C(O)CNC(=O)C(=O)CCCCCCOc1ccc(-c2ccccc2)cc1,IC50,[6],> 50 µM
C[C@@H](O)C(=O)CCCCCCC(=O)Nc1ccccc1,IC50,Histone deacetylase [7],> 33 µM
same,IC50,Histone deacetylase [1],8.9 µM
same,IC50,[2],> 300 µM
CN(C)CCNC(=O)C(=O)CCCCCCOc1ccc(-c2ccccc2)cc1,IC50,[6],> 50 µM
C=C1N[C@@](C)(CC)C(=O)N[C@@H](Cc2ccccc2)C(=O)N2C[C@@H](C)C[C@@H]2C(=O)N[C@H]1CCCCCC(=O)[C@@H](C)O,IC50,Toxoplasma gondii,0.0286 µM
CNC(=O)C(=O)CCCCCCOc1ccc(-c2ccccc2)cc1,IC50,[6],0.11 µM
CCC(=O)CCCCCCC(=O)Nc1ccccc1,IC50,Histone deacetylase [1],> 100 µM
same,IC50,[2],> 300 µM
C[S+]([O-])CCCCCCC(=O)Nc1ccccc1 (centres undefined),IC50,Histone deacetylase [1],48 µM
O=C(CCCCCCOP(=O)([O-])[O-])Nc1ccccc1.[K+].[K+],IC50,Histone deacetylase [1],3900 µM
O=C(CCCCCOP(=O)([O-])[O-])Nc1ccccc1.[K+].[K+],IC50,Histone deacetylase [1],60 µM
COc1cccc(NC(=O)CCCCCC(=O)Nc2ccccc2)c1,IC50,Histone deacetylase [1],> 1000 µM
O=C(CCCCCNP(=O)([O-])[O-])Nc1ccccc1.[K+].[K+],IC50,Histone deacetylase [1],70 µM
CCN(CC)C(=S)SSCCCCCC(=O)Nc1ccccc1,IC50,Histone deacetylase 2,0.18 µM
same,IC50,Histone deacetylase [1],0.7 µM
same,IC50,[2],0.068 µM
same,IC50,[5],0.14 µM
same,IC50,Histone deacetylase 1 [8],0.046 µM
CN(C)C(=O)C(=O)CCCCCCOc1ccc(-c2ccccc2)cc1,IC50,[6],> 5 µM
O=C(CCCCNP(=O)([O-])[O-])Nc1ccccc1.[K+].[K+],IC50,Histone deacetylase [1],360 µM
CCNC(=O)C(=O)CCCCCCOc1ccc(-c2ccccc2)cc1,IC50,[6],4.9 µM
O=C(CCCCCCC(=O)Nc1ccccc1)NO [VORINOSTAT],pKa,[9],9.4
O=C(CO)NCCCCCC(=O)Nc1ccccc1,IC50,Histone deacetylase [1],> 100 µM
NC(=O)C(=O)CCCCCCOc1ccc(-c2ccccc2)cc1,IC50,[6],> 50 µM
C[Si](O)(O)CCCCCCC(=O)Nc1ccccc1,IC50,Histone deacetylase 7,> 100 µM
same,IC50,Histone deacetylase 11,57 µM
same,IC50,Histone deacetylase 3,0.6 µM
same,IC50,Histone deacetylase 5,> 100 µM
same,IC50,Histone deacetylase 8,27 µM
same,IC50,Histone deacetylase 2,6 µM
same,IC50,[2],18 µM
same,IC50,[5],5 µM
same,IC50,Histone deacetylase 4,> 100 µM
O=C(CCCCOP(=O)([O-])[O-])Nc1ccccc1.[K+].[K+],IC50,Histone deacetylase [1],2200 µM
O=C(CCCCCCNCCS)Nc1ccccc1,IC50,Histone deacetylase [1],> 100 µM
O=C(CCCCCCNP(=O)([O-])[O-])Nc1ccccc1.[K+].[K+],IC50,Histone deacetylase [1],490 µM
NC(=S)NC(=O)CCCCC(=O)Nc1ccccc1,inhibition (INH),HBL-100,< 12%
same,IC50,[3],30.4 µM
same,IC50,HRT-18 cell line,30.4 µM
O=C(c1ccc(C(=O)C(F)(F)C(F)(F)F)s1)N1CCc2ccccc21,IC50,Histone deacetylase 3,2.9 µM
same,IC50,Histone deacetylase 1 [8],4.2 µM
NCC(=O)NCCCCCC(=O)Nc1ccccc1,IC50,Histone deacetylase [1],> 100 µM
O=C(CCCCCOP([O-])([O-])=S)Nc1ccccc1.[K+].[K+],IC50,Histone deacetylase [1],50 µM
